Laboratory results taken from ChEMBL document CHEMBL1240489, “Discovery of N-{1-[3-(3-oxo-2,3-dihydrobenzo[1,4]oxazin-4-yl)propyl]piperidin-4-yl}-2-phenylacetamide (Lu AE51090): an allosteric muscarinic M1 receptor agonist with unprecedented selectivity and procognitive potential” (J Med Chem, 2010).
The source made the active and inactive calls. The calls are words filed in the database; no cut-off is given here.

Tests used:
[1] = target: T1, Muscarinic acetylcholine receptor M1 (Homo sapiens) (UniProt P11229); test: Agonist activity at human muscarinic M1 receptor expressed in CHO-K1 cells assessed as increase of acetylcholine-induced calcium flux by FLIPR assay in presence of atropine; format: functional, cell-based
T1 sequence (whole entry): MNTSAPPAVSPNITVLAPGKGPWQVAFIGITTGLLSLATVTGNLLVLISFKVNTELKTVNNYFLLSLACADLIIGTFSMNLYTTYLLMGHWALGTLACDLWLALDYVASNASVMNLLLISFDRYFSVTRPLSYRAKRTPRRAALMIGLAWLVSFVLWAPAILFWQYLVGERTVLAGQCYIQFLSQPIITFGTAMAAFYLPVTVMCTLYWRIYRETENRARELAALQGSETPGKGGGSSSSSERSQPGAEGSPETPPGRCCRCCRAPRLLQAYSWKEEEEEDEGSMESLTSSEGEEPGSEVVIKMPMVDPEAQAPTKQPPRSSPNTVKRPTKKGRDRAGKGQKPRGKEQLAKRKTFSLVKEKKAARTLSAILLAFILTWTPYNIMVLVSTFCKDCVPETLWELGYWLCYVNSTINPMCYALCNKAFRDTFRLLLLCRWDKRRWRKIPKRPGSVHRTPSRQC

[2] = target: T2, Muscarinic acetylcholine receptor M2 (Homo sapiens) (UniProt P08172); test: Agonist activity at human muscarinic M2 receptor expressed in CHO-K1 cells coexpressing Galpha16 subunit assessed as increase of acetylcholine-induced calcium flux at 10 uM by FLIPR assay relative to acetylcholine; format: functional, cell-based
T2 sequence (whole entry): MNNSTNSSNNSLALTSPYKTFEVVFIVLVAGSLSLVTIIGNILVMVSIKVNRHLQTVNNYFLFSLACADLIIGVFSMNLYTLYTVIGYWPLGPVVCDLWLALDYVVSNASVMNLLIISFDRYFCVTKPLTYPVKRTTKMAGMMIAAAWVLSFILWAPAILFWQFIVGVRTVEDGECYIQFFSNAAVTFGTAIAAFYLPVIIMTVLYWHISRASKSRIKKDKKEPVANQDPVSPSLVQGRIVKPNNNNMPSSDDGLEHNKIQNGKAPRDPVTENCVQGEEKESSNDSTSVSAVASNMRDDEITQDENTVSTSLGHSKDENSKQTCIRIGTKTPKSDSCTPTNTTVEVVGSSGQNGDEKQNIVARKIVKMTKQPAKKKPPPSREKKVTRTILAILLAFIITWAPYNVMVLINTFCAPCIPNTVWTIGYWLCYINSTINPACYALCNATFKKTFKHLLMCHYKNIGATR

[3] = target: T3, Muscarinic acetylcholine receptor M2 (Homo sapiens, UniProt P08172); test: Displacement of [3H]-AFDX-384 from human muscarinic M2 receptor expressed in CHO-K1 cells; format: cell-based
T3 sequence (P08172 whole entry): T2 sequence (whole entry)

[4] = target: T4, Muscarinic acetylcholine receptor M4 (Homo sapiens, UniProt P08173); test: Displacement of [3H]-4-DAMP from human muscarinic M4 receptor expressed in BHK-21 cells; format: cell-based
T4 sequence (P08173 whole entry): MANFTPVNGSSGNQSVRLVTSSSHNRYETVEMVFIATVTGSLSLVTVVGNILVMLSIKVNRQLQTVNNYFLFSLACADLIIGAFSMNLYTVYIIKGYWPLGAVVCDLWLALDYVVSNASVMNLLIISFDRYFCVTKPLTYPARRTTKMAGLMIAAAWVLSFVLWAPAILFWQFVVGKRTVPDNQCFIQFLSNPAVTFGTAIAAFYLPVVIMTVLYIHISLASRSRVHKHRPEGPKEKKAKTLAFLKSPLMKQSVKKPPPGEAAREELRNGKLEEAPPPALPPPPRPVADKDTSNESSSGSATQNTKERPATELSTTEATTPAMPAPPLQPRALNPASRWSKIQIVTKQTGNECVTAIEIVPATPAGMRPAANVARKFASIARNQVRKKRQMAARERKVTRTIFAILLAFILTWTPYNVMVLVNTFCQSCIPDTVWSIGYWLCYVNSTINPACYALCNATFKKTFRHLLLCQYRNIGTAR

[5] = Protein binding in rat plasma at 0.1 uM after 60 mins by LC/MS-MS analysis; format: ADME, cell-free; conditions: read-out: PPB (converted)
Mus musculus = test: Reversal of 60 seconds delay-induced memory decay in sc dosed C57Bl/6J mouse assessed as positive alteration administered for 1 week by Y-maze test; format: functional, organism-based
Histamine H3 receptor = Histamine H3 receptor (Homo sapiens, UniProt Q9Y5N1); test: Binding affinity to human histamine H3 receptor by radioligand displacement assay
Chain of Histamine H3 receptor (Q9Y5N1 whole entry): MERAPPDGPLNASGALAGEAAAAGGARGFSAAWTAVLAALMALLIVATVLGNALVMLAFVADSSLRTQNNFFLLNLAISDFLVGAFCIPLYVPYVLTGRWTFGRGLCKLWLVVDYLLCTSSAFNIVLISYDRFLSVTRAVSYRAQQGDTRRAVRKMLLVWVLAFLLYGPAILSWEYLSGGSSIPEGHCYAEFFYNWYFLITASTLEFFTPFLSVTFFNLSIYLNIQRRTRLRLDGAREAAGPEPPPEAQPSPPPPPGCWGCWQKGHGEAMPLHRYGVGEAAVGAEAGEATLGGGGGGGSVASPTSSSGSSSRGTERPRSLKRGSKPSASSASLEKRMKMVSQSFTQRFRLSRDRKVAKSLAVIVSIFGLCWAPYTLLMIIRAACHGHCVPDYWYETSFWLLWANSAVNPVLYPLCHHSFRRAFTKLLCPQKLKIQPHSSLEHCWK

[6] = target: 5-hydroxytryptamine receptor 1A (Homo sapiens, UniProt P08908); test: Binding affinity to human 5-HT1A receptor by radioligand displacement assay
Chain of 5-hydroxytryptamine receptor 1A (P08908 whole entry): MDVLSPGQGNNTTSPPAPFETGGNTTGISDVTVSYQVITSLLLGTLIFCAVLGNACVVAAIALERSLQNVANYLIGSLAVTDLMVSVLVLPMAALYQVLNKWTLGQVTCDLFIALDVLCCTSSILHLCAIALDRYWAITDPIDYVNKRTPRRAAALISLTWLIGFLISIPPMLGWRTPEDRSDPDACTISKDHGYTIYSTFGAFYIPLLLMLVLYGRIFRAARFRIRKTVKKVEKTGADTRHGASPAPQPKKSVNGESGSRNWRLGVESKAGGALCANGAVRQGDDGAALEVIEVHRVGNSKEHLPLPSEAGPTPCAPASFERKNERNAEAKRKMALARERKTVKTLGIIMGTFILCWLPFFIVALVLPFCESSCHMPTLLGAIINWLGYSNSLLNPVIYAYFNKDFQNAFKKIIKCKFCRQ

[7] = Binding affinity to voltage gated Na channel site 2 by radioligand displacement assay
Adenosine receptor A1 = Adenosine receptor A1 (Homo sapiens, UniProt P30542); test: Binding affinity to human adenosine A1 receptor agonist site by radioligand displacement assay
Chain of Adenosine receptor A1 (P30542 whole entry): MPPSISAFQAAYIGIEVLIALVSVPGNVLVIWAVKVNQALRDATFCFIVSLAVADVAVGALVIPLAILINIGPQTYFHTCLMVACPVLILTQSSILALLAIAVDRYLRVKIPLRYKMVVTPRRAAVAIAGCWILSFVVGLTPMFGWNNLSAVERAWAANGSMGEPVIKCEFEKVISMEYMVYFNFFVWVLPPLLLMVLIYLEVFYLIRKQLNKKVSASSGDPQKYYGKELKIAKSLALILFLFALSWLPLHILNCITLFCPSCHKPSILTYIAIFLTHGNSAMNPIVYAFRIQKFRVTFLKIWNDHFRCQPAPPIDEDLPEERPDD

[8] = Binding affinity to human Ca2+ channel diltiazem site by radioligand displacement assay
[9] = target: Gastrin/cholecystokinin type B receptor (Homo sapiens, UniProt P32239); test: Binding affinity to human CCK2 receptor by radioligand displacement assay
Chain of Gastrin/cholecystokinin type B receptor (P32239 whole entry): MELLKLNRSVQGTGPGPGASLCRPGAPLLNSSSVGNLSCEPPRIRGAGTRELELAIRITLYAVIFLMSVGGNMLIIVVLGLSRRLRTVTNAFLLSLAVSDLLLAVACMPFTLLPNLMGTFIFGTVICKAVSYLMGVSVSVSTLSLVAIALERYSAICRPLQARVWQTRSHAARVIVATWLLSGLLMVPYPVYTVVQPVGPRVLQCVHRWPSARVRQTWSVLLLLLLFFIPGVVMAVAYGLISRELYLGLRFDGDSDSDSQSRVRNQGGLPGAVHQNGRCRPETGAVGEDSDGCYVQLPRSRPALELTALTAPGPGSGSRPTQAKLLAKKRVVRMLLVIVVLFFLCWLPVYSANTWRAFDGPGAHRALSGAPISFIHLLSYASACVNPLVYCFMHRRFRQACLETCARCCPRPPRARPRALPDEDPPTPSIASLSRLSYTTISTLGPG

[10] = target: Beta-2 adrenergic receptor (Homo sapiens, UniProt P07550); test: Binding affinity to adrenergic beta2 receptor by radioligand displacement assay
Chain of Beta-2 adrenergic receptor (P07550 whole entry): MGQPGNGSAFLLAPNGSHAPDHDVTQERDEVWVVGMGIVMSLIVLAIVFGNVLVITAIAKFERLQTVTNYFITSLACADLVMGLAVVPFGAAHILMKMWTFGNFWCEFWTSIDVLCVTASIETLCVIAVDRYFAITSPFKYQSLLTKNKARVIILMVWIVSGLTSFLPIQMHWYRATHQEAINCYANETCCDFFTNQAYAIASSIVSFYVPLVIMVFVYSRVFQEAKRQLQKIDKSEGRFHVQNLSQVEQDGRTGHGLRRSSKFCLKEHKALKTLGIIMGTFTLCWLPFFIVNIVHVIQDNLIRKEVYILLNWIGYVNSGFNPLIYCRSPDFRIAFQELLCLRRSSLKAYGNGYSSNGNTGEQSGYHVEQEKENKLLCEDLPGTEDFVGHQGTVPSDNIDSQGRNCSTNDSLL

[11] = Binding affinity to L-type Ca2+ channel verapamil site by radioligand displacement assay
[12] = target: T5, Muscarinic acetylcholine receptor M5 (Homo sapiens, UniProt P08912); test: Binding affinity to human muscarinic M5 receptor by radioligand displacement assay
T5 sequence (P08912 whole entry): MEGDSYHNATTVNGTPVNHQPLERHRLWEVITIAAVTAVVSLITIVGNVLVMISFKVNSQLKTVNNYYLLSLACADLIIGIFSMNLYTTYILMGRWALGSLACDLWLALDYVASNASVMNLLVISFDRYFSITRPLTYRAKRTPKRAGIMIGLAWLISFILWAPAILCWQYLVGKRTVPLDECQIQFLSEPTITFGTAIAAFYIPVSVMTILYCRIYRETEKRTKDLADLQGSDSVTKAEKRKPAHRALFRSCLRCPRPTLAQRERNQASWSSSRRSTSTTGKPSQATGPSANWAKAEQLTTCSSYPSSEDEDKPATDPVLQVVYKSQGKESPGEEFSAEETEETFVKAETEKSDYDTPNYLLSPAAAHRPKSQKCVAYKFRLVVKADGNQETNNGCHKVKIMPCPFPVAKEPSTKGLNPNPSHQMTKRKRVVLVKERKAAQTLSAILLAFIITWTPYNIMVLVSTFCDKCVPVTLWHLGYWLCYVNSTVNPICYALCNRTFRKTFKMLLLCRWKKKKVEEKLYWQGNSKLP

[13] = target: Sodium-dependent serotonin transporter (Homo sapiens, UniProt P31645); test: Binding affinity to human 5-HT transporter by radioligand displacement assay
Chain of Sodium-dependent serotonin transporter (P31645 whole entry): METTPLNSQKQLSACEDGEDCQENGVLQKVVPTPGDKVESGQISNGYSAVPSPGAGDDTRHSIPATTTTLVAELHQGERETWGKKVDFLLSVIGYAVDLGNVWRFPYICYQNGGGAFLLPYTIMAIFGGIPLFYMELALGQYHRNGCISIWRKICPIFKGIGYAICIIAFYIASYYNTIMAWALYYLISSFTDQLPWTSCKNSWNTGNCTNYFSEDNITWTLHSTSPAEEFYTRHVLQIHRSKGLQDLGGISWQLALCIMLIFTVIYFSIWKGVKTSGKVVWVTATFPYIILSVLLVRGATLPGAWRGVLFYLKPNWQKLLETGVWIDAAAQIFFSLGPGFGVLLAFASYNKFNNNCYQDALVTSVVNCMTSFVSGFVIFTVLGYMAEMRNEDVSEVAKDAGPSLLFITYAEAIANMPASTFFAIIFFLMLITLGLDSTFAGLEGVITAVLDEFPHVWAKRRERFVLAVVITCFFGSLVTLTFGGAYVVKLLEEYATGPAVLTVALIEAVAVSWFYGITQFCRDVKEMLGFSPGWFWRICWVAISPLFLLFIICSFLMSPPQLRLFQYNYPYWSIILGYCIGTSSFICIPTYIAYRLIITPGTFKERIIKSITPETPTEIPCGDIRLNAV

Cannabinoid receptor 1 = Cannabinoid receptor 1 (Homo sapiens, UniProt P21554); test: Binding affinity to human CB1 receptor by radioligand displacement assay
Chain of Cannabinoid receptor 1 (P21554 whole entry): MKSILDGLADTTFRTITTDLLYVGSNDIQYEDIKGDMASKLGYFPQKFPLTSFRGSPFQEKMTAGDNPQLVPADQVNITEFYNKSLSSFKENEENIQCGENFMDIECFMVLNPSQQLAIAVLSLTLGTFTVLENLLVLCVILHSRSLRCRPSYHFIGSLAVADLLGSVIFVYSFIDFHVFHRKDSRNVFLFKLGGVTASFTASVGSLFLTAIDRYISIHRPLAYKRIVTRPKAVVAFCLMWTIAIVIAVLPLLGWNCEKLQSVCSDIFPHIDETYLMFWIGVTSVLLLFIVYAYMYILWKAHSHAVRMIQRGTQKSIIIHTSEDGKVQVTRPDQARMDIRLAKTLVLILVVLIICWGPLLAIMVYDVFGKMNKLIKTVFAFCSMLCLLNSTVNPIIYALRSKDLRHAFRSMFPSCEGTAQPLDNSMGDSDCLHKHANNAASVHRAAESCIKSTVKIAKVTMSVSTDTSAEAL

[14] = Binding affinity to GABA transporter by radioligand displacement assay
[15] = Binding affinity to L-type Ca2+ channel DHP binding site by radioligand displacement assay

O=C(Cc1ccccc1)NC1CCN(CCCN2C(=O)COc3ccccc32)CC1
Activity [1]: inactive
Emax [2]: 0%
Ki [3]: 2200 nM
Ki [4]: 6900 nM
fraction unbound at 1 h, 0.1 µM [5]: 0.48
Activity (Mus musculus): Dose-dependent effect
Ki (Histamine H3 receptor): ≥ 1000 nM
Ki [6]: ≥ 1000 nM
Ki [7]: ≥ 1000 nM
Ki (Adenosine receptor A1): ≥ 1000 nM
Ki [8]: ≥ 1000 nM
Ki [9]: ≥ 1000 nM
Ki [10]: ≥ 1000 nM
Ki [11]: ≥ 1000 nM
Ki [12]: ≥ 1000 nM
Ki [13]: ≥ 1000 nM
Ki (Cannabinoid receptor 1): ≥ 1000 nM
Ki [14]: ≥ 1000 nM
Ki [15]: ≥ 1000 nM
